# Patent US9303016B2, “Derivatives of aza adamantane and uses thereof” (CONNEXIOS LIFE SCIENCES PVT. LTD., priority 2011, dated 2016)
# Target: T1, human full length HSD11β1 (Homo sapiens, UniProt P28845)
# T1 construct: transient expression of human full length HSD11β1 expression vector; host or cells: CHO cells, transient transfection
# Test: In Vitro HSD11β1 Inhibition Assay
# Format: cell-based
# Settings: CHO cells transiently expressing human HSD11β1; 200 nM cortisone+500 uM NADPH overnight; cortisone to cortisol by LC/MS-MS; read-out: 11βHSD1 (IC50)
# Procedure, shortened: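 Whole-cell assay in CHO cells transiently transfected with full-length human HSD11β1, re-seeded 24 h after transfection. Cells incubated overnight with 200 nM cortisone plus 500 uM NADPH, with or without inhibitor. Cortisone-to-cortisol conversion measured by LC/MS-MS; IC50 (nM) from an 8-point log concentration-inhibition curve.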
# T1 sequence (P28845 whole entry): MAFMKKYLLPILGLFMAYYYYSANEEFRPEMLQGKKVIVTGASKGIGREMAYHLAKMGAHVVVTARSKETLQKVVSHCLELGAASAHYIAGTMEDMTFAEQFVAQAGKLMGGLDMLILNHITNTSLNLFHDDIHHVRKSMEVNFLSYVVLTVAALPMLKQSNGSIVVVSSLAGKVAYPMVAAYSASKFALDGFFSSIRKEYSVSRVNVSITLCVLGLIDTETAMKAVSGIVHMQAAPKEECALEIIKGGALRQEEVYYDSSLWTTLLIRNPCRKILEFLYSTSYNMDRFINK
row,SMILES,IC50 [nM]
1,"CC(CC(=O)N1C2CC3CC1CC(O)(C3)C2)c1c[nH]c2ccc(-c3ccco3)c(Cl)c12 (stereo not drawn) [Compound 208, 3-[4-chloro-5-(furan-2-yl)-1H-indol-3-yl]-1-(5-hydroxy-2-azatricyclo[3.3.1.1^3,7]dec-2-yl)butan-1-one]",100 to 150
2,"COc1c(C)ccc2[nH]cc(C(C)CC(=O)N3C4CC5CC3CC(O)(C5)C4)c12 (stereo not drawn) [Compound 209, 1-(5-hydroxy-2-azatricyclo[3.3.1.1^3,7]dec-2-yl)-3-(4-methoxy-5-methyl-1H-indol-3-yl)butan-1-one]",200 to 250
3,"Cc1ccc2c(c1Cl)C(C(C)CC(=O)N1C3CC4CC1CC(O)(C4)C3)C(=O)N2 (stereo not drawn) [Compound 211, 4-chloro-3-[4-(5-hydroxy-2-azatricyclo[3.3.1.1^3,7]dec-2-yl)-4-oxobutan-2-yl]-5-methyl-1,3-dihydro-2H-indol-2-one]",150 to 200
4,"CC(CC(=O)N1C2CC3(O)CC1CC(F)(C2)C3)c1c[nH]c2cccc(C3CC3)c12 (stereo not drawn) [Compound 213, 3-(4-cyclopropyl-1H-indol-3-yl)-1-(5-fluoro-7-hydroxy-2-azatricyclo[3.3.1.1^3,7]dec-2-yl)butan-1-one]",100 to 150
5,"CC(CC(=O)N1C2CC3CC1CC(CC(=O)O)(C3)C2)c1c[nH]c2cccc(-c3ccc(F)o3)c12 (stereo not drawn) [Compound 215, 2-(2-(3-(4-(5-fluorofuran-2-yl)-1H-indol-3-yl)butanoyl)-2-azaadamantan-5-yl)acetic acid]",> 250
6,"Cc1cccc2c1c(C(C)CC(=O)N1C3CC4CC1CC(O)(C4)C3)cn2S(=O)(=O)c1cccc2cccnc12 (stereo not drawn) [Compound 216, 1-(5-hydroxy-2-azaadamantan-2-yl)-3-(4-methyl-1-(quinolin-8-ylsulfonyl)-1H-indol-3-yl)butan-1-one]",> 250
7,"Cc1ccc2[nH]cc(C(C)CC(=O)N3C4CC5(C)CC3CC(O)(C4)C5)c2c1Cl (stereo not drawn) [Compound 219, 3-(4-chloro-5-methyl-1H-indol-3-yl)-1-(5-hydroxy-7-methyl-2-azaadamantan-2-yl)butan-1-one]",< 100
8,"CC(CC(=O)N1C2CC3CC1CC(O)(C3)C2)c1c(C#N)[nH]c2cccc(C3CC3)c12 (stereo not drawn) [Compound 220, 4-cyclopropyl-3-(4-(5-hydroxy-2-azaadamantan-2-yl)-4-oxobutan-2-yl)-1H-indole-2-carbonitrile]",> 250
9,"Cc1ccc2[nH]cc(C(C)CC(=O)N3C4CC5CC3CC(C#N)(C5)C4)c2c1C (stereo not drawn) [Compound 221, 2-(3-(4,5-dimethyl-1H-indol-3-yl)butanoyl)-2-azaadamantane-5-carbonitrile]",> 250
10,"CC(CC(=O)N1C2CC3CC1CC(C(=O)O)(C3)C2)c1c[nH]c2cccc(-c3ccco3)c12 (stereo not drawn) [Compound 222, 2-(3-(4-(furan-2-yl)-1H-indol-3-yl)butanoyl)-2-azaadamantane-5-carboxylic acid]",> 250
11,"COc1ccc2[nH]cc(C(C)CC(=O)N3C4CC5CC3CC(F)(C5)C4)c2c1 (stereo not drawn) [Compound 224, 1-(5-fluoro-2-azaadamantan-2-yl)-3-(5-methoxy-1H-indol-3-yl)butan-1-one]",> 250
12,"CC(CC(=O)N1C2CC3CC1CC(Br)(C3)C2)c1c[nH]c2ccc(OS(=O)(=O)C(F)(F)F)cc12 (stereo not drawn) [Compound 225, 3-(4-(5-bromo-2-azaadamantan-2-yl)-4-oxobutan-2-yl)-1H-indol-5-yl trifluoromethanesulfonate]",> 250
13,"COc1ccc2[nH]cc(C(C)CC(=O)N3C4CC5CC(C4)CC3C5)c2c1 (stereo not drawn) [Compound 226, 1-(2-azaadamantan-2-yl)-3-(5-methoxy-1H-indol-3-yl)butan-1-one]",< 100
14,"COc1ccc2[nH]cc(C(C)CC(=O)N3C4CC5CC3CC(C)(C5)C4)c2c1 (stereo not drawn) [Compound 227, 3-(5-methoxy-1H-indol-3-yl)-1-(5-methyl-2-azaadamantan-2-yl)butan-1-one]",< 100
15,"CC(CC(=O)N1C2CC3CC(C2)CC1C3)c1c[nH]c2ccc(OS(C)(=O)=O)cc12 (stereo not drawn) [Compound 229, 3-(4-(2-azaadamantan-2-yl)-4-oxobutan-2-yl)-1H-indol-5-yl methanesulfonate]",> 250
16,"COc1ccc2[nH]cc(C(C)CC(=O)N3C4CC5CC3CC(C#N)(C5)C4)c2c1 (stereo not drawn) [Compound 230, 2-(3-(5-methoxy-1H-indol-3-yl)butanoyl)-2-azaadamantane-5-carbonitrile]",> 250
17,"O=C(CCc1c[nH]c2ccccc12)N1C2CC3CC(C2)CC1C3 [Example 1, 1-(2-azatricyclo[3.3.1.1^3,7]dec-2-yl)-3-(1H-indol-3-yl)propan-1-one]",> 250
18,"Cc1cccc2[nH]cc(CCC(=O)N3C4CC5CC(C4)CC3C5)c12 [Example 2, 1-(2-azatricyclo[3.3.1.1^3,7]dec-2-yl)-3-(4-methyl-1H-indol-3-yl)propan-1-one]",100 to 150
19,"Cc1cccc2c1c(CCC(=O)N1C3CC4CC(C3)CC1C4)cn2C [Example 3, 1-(2-azatricyclo[3.3.1.1^3,7]dec-2-yl)-3-(1,4-dimethyl-1H-indol-3-yl)propan-1-one]",> 250
20,"O=C(CCc1c[nH]c2cccc(F)c12)N1C2CC3CC1CC(O)(C3)C2 [Example 4, 3-(4-fluoro-1H-indol-3-yl)-1-(5-hydroxy-2-azatricyclo[3.3.1.1^3,7]dec-2-yl)propan-1-one]",> 250

row,SMILES,IC50 [nM]
1,"O=C(CCc1c[nH]c2cc(F)ccc12)N1C2CC3CC(C2)CC1C3 [Example 5, 1-(2-azatricyclo[3.3.1.1^3,7]dec-2-yl)-3-(6-fluoro-1H-indol-3-yl)propan-1-one]",200 to 250
2,"O=C(CCc1c[nH]c2ccc(F)cc12)N1C2CC3CC(C2)CC1C3 [Example 7, 1-(2-azatricyclo[3.3.1.1^3,7]dec-2-yl)-3-(5-fluoro-1H-indol-3-yl)propan-1-one]",> 250
3,"Cn1cc(CCC(=O)N2C3CC4CC2CC(O)(C4)C3)c2c(F)cccc21 [Example 8, 3-(4-fluoro-1-methyl-1H-indol-3-yl)-1-(5-hydroxy-2-azatricyclo[3.3.1.1^3,7]dec-2-yl)propan-1-one]",> 250
4,"Cn1cc(C(C)(C)CC(=O)N2C3CC4CC2CC(O)(C4)C3)c2ccccc21 [Example 10, 1-(5-hydroxy-2-azatricyclo[3.3.1.1^3,7]dec-2-yl)-3-methyl-3-(1-methyl-1H-indol-3-yl)butan-1-one]",> 250
5,"O=C(CCc1nc2ccccc2s1)N1C2CC3CC(C2)CC1C3 [Example 11, 1-(2-azatricyclo[3.3.1.1^3,7]dec-2-yl)-3-(1,3-benzothiazol-2-yl)propan-1-one]",> 250
6,"O=C(CCc1nc2ccccc2s1)N1C2CC3CC1CC(O)(C3)C2 [Example 12, 3-(1,3-benzothiazol-2-yl)-1-(5-hydroxy-2-azatricyclo[3.3.1.1^3,7]dec-2-yl)propan-1-one]",> 250
7,"O=C(CCc1nc2ccccc2s1)N1C2CC3CC1CC(OC(F)F)(C3)C2 [Example 13, 3-(1,3-benzothiazol-2-yl)-1-[5-(difluoromethoxy)-2-azatricyclo[3.3.1.1^3,7]dec-2-yl]propan-1-one]",> 250
8,"O=C(CCc1c[nH]c2ncccc12)N1C2CC3CC(C2)CC1C3 [Example 14, 1-(2-azatricyclo[3.3.1.1^3,7]dec-2-yl)-3-(1H-pyrrolo[2,3-b]pyridin-3-yl)propan-1-one]",100 to 150
9,"O=C(CCc1c[nH]c2ncccc12)N1C2CC3CC1CC(O)(C3)C2 [Example 15, 1-(5-hydroxy-2-azatricyclo[3.3.1.1^3,7]dec-2-yl)-3-(1H-pyrrolo[2,3-b]pyridin-3-yl)propan-1-one]",> 250
10,"O=C(CCn1nnc2ccccc21)N1C2CC3CC1CC(O)(C3)C2 [Example 16, 3-(1H-benzotriazol-1-yl)-1-(5-hydroxy-2-azatricyclo[3.3.1.1^3,7]dec-2-yl)propan-1-one]",> 250
11,"CC(CC(=O)N1C2CC3CC(C2)CC1C3)c1c[nH]c2ccccc12 (stereo not drawn) [Example 17, 1-(2-azatricyclo[3.3.1.1^3,7]dec-2-yl)-3-(1H-indol-3-yl)butan-1-one]",100 to 150
12,"CC(CC(=O)N1C2CC3CC(C2)C(O)C1C3)c1c[nH]c2ccccc12 (stereo not drawn) [Example 18, 1-(4-hydroxy-2-azatricyclo[3.3.1.1^3,7]dec-2-yl)-3-(1H-indol-3-yl)butan-1-one]",100 to 150
13,"CC(C)C(CC(=O)N1C2CC3CC(C2)C(O)C1C3)c1c[nH]c2ccccc12 (stereo not drawn) [Example 19, 1-(4-hydroxy-2-azatricyclo[3.3.1.1^3,7]dec-2-yl)-3-(1H-indol-3-yl)-4-methylpentan-1-one]",200 to 250
14,"CC(CC(=O)N1C2CC3CC1CC(O)(C3)C2)c1c[nH]c2ccccc12 (stereo not drawn) [Example 20, 1-(5-hydroxy-2-azatricyclo[3.3.1.1^3,7]dec-2-yl)-3-(1H-indol-3-yl)butan-1-one]",> 250
15,"CC(C)C(CC(=O)N1C2CC3CC1CC(O)(C3)C2)c1c[nH]c2ccccc12 (stereo not drawn) [Example 23, 1-(5-hydroxy-2-azatricyclo[3.3.1.1^3,7]dec-2-yl)-3-(1H-indol-3-yl)-4-methylpentan-1-one]",> 250
16,"CC(C)C(CC(=O)N1C2CC3CC1CC(F)(C3)C2)c1c[nH]c2ccccc12 (stereo not drawn) [Example 24, 1-(5-fluoro-2-azatricyclo[3.3.1.1^3,7]dec-2-yl)-3-(1H-indol-3-yl)-4-methylpentan-1-one]",> 250
17,"CC(C)C(CC(=O)N1C2CC3CC1CC(O)(C3)C2)c1c[nH]c2cccc(F)c12 (stereo not drawn) [Example 25, 3-(4-fluoro-1H-indol-3-yl)-1-(5-hydroxy-2-azatricyclo[3.3.1.1^3,7]dec-2-yl)-4-methylpentan-1-one]",> 250
18,"CC(CC(=O)N1C2CC3CC1CC(O)(C3)C2)c1c[nH]c2cccc(F)c12 (stereo not drawn) [Example 26, 3-(4-fluoro-1H-indol-3-yl)-1-(5-hydroxy-2-azatricyclo[3.3.1.1^3,7]dec-2-yl)butan-1-one]",200 to 250
19,"COC12CC3CC(C1)N(C(=O)CC(C)c1c[nH]c4cccc(F)c14)C(C3)C2 (stereo not drawn) [Example 29, 3-(4-fluoro-1H-indol-3-yl)-1-(5-methoxy-2-azatricyclo[3.3.1.1^3,7]dec-2-yl)butan-1-one]",100 to 150
